Here are results for 23 compounds from PubChem BioAssay (NCI).

Test systems include COLO 205 colon; U251 CNS; SNB-75 CNS; SK-MEL-28 melanoma; XF 498 CNS; SNB-78 CNS; SK-MEL-2 melanoma; TK-10 renal; CCRF-CEM leukemia; NCI-H226 lung; MCF7 breast.
What all share (experiment): NCI-60 cell line screen, 48 h

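All cell lines were grown in 96-well plates and treated with compound for 48 hours. TGI: total growth inhibition.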 Some results are limits rather than exact numbers.

Regarding `C#CCN(Cc1ccc2nc(-c3ccccc3)c(Cl)nc2c1)c1ccc(Cl)c(Cl)c1`, the TGI in the test on COLO 205 colon, in the test with U251 CNS, with SNB-75 CNS, in the test on SK-MEL-28 melanoma, in the test on XF 498 CNS and in the test with SNB-78 CNS was greater than 100 µM each time. Further, the TGI in the test on SK-MEL-2 melanoma, in the test with TK-10 renal and in the test on CCRF-CEM leukemia was greater than 100 µM each time.

Consider `c1ccc(C2SCc3nc4ccccc4n32)cc1` (configuration not stated), for which the TGI with COLO 205 colon was greater than 100 µM; in the test with U251 CNS, greater than 100 µM; in the test with NCI-H226 lung, greater than 100 µM; in the test on SNB-75 CNS it was 69.8 µM; with SK-MEL-28 melanoma, greater than 100 µM; in the test with XF 498 CNS, 95.4 µM. The TGI in the test with SNB-78 CNS, in the test with SK-MEL-2 melanoma, with TK-10 renal and with CCRF-CEM leukemia was greater than 100 µM in each case.

As for `CCN1CC2(CO)CCC(OC)C34C5CC6C(OC)CC(O)(C5C6OC)C(O)(C(OC)C23)C14` (configuration not stated), the TGI in the test on COLO 205 colon, in the test with U251 CNS, in the test on NCI-H226 lung, in the test with SNB-75 CNS, in the test on SK-MEL-28 melanoma and with MCF7 breast was greater than 375 µM in each case. The TGI is greater than 375 µM in the test on XF 498 CNS, greater than 375 µM in the test on SNB-78 CNS, greater than 63.9 µM in the test on SK-MEL-2 melanoma and greater than 375 µM in the test on CCRF-CEM leukemia.

On to `O=S1(=O)OCCOS(=O)(=O)C1C1c2ccccc2-c2ccccc21`, for which the TGI in the test on COLO 205 colon was greater than 100 µM; in the test on U251 CNS, 57.9 µM; in the test on NCI-H226 lung it was greater than 100 µM; with SNB-75 CNS it was 31.9 µM; with SK-MEL-28 melanoma, greater than 100 µM; with MCF7 breast it was greater than 100 µM. Further, the TGI in the test with SK-MEL-2 melanoma is greater than 100 µM; with TK-10 renal, greater than 100 µM; in the test on CCRF-CEM leukemia, 89.4 µM.

Turning to `O=C1C(Nc2ccc(S(=O)(=O)Nc3cnc4ccccc4n3)cc2)=CC(=Nc2ccc(S(=O)(=O)Nc3cnc4ccccc4n3)cc2)c2ccccc21`, the TGI came to 33.1 µM with COLO 205 colon; 34 µM with U251 CNS; 43.7 µM in the test with NCI-H226 lung; 28.5 µM with SNB-75 CNS; 33 µM with SK-MEL-28 melanoma; 42.4 µM in the test with MCF7 breast. Further, the TGI with XF 498 CNS is 59.2 µM; with SNB-78 CNS, 47.3 µM; in the test on SK-MEL-2 melanoma, 36.3 µM; with TK-10 renal, greater than 54.7 µM; in the test with CCRF-CEM leukemia, 57 µM.

For `CN(C)CCNC(=O)c1cccc2c(NC(CCCN=C(N)N)C(=O)O)c3ccccc3nc12` (configuration not stated), the TGI with COLO 205 colon was greater than 100 µM; in the test on U251 CNS it was greater than 100 µM; with NCI-H226 lung it was 22.8 µM; with SNB-75 CNS, 34.5 µM; with SK-MEL-28 melanoma, 89.2 µM; in the test on MCF7 breast, greater than 100 µM. Also, the values for the TGI in the test with SK-MEL-2 melanoma, with TK-10 renal and with CCRF-CEM leukemia were 38.4 µM, greater than 100 µM and greater than 100 µM, respectively.

For `CC(NC(=O)C(NC(=O)C(NC(=O)C(F)(F)F)C(C)C)C(C)C)C(=O)Oc1c(Cl)c(Cl)c(Cl)c(Cl)c1Cl` (configuration not stated), the TGI in the test on COLO 205 colon, in the test on U251 CNS, with NCI-H226 lung, in the test on SNB-75 CNS, in the test on SK-MEL-28 melanoma and in the test on MCF7 breast was greater than 100 µM in each case. Further, the TGI in the test with SK-MEL-2 melanoma, with TK-10 renal and in the test on CCRF-CEM leukemia was greater than 100 µM each time.

For `CN(CCCNC(=O)c1[nH]nc2c1ccc1ccccc12)CCCNC(=O)c1[nH]nc2c1ccc1ccccc12`, the TGI is 10.9 µM with COLO 205 colon; 28.4 µM with U251 CNS; 30.7 µM in the test with NCI-H226 lung; 31.3 µM in the test with SNB-75 CNS; 4.54 µM in the test on SK-MEL-28 melanoma; 28.7 µM in the test on MCF7 breast. Moreover, the values for the TGI with SK-MEL-2 melanoma, with TK-10 renal and with CCRF-CEM leukemia were 23.6 µM, 31.8 µM and 29.4 µM, respectively.

`COC(=O)C12CCC(CC1=O)C2(C)C` (configuration not stated): the TGI in the test with COLO 205 colon, in the test with U251 CNS, in the test on NCI-H226 lung, with SNB-75 CNS, in the test with SK-MEL-28 melanoma and with XF 498 CNS was greater than 100 µM throughout. Also, the TGI with TK-10 renal was greater than 100 µM.

As to `C=c1c2ccccc2oc2nc3[nH]c(N)c(C#N)c(N)c3c(=N)c12`, the TGI is greater than 100 µM in the test with COLO 205 colon; greater than 100 µM in the test with U251 CNS; 74.9 µM in the test with NCI-H226 lung; 90.3 µM in the test with SNB-75 CNS; greater than 100 µM with SK-MEL-28 melanoma; greater than 100 µM in the test on MCF7 breast. Further, the TGI in the test on SK-MEL-2 melanoma was 37.8 µM; in the test on TK-10 renal it was greater than 100 µM; in the test on CCRF-CEM leukemia, greater than 100 µM.

Consider `COc1ccc2cc(CNCCOCCOCCNCc3ccc4cc(OC)ccc4c3)ccc2c1`, for which the TGI in the test with COLO 205 colon came to 0.346 µM; in the test with U251 CNS it was 8.46 µM; with NCI-H226 lung it was 3.09 µM; with SNB-75 CNS, 3.03 µM; with SK-MEL-28 melanoma it was 2.69 µM; in the test on MCF7 breast, 2.5 µM. For the same compound, the figures for the TGI in the test on SK-MEL-2 melanoma, in the test with TK-10 renal and in the test with CCRF-CEM leukemia were 3.18 µM, 2.98 µM and 1.24 µM, respectively.

On to `O=C(Cn1cc(I)c(C(=O)NCC(O)CO)n1)NCC(O)CO` (configuration not stated), for which the TGI in the test on COLO 205 colon, in the test with U251 CNS, with NCI-H226 lung, in the test with SNB-75 CNS, in the test on SK-MEL-28 melanoma and in the test with XF 498 CNS was greater than 100 µM each time. The TGI in the test with SNB-78 CNS, with SK-MEL-2 melanoma, in the test with TK-10 renal and in the test with CCRF-CEM leukemia was greater than 100 µM each time.

Regarding `OC[C@H](O)[C@@H](OCc1ccccc1)[C@H](NCc1ccccc1)c1cccs1`, the TGI in the test with COLO 205 colon, in the test with U251 CNS, in the test with NCI-H226 lung, in the test with SNB-75 CNS, in the test on SK-MEL-28 melanoma and in the test with MCF7 breast was greater than 100 µM in each case. The TGI with SK-MEL-2 melanoma, in the test on TK-10 renal and with CCRF-CEM leukemia was greater than 100 µM each time.

As to `CCCCCCCCC/C=C1/CC(CO)(COC(=O)C2CCCCC2)OC1=O` (configuration not stated), the TGI with COLO 205 colon, in the test with U251 CNS, in the test on NCI-H226 lung, with SNB-75 CNS, in the test with SK-MEL-28 melanoma and with MCF7 breast was greater than 100 µM in each case. The TGI in the test on SK-MEL-2 melanoma, with TK-10 renal and in the test on CCRF-CEM leukemia was greater than 100 µM in each case.

On to `Clc1cccc(C=NC23CC4CC(CC(C4)C2)C3)c1Cl`, for which the TGI in the test with COLO 205 colon, in the test on U251 CNS, in the test on NCI-H226 lung, in the test with SNB-75 CNS, in the test on SK-MEL-28 melanoma and in the test with MCF7 breast was greater than 10 µM in each case. Also, the TGI in the test on SK-MEL-2 melanoma, in the test with TK-10 renal and with CCRF-CEM leukemia was greater than 10 µM each time.

On to `Clc1ccc(CCNCCNC2(c3cc4ccccc4s3)CCCCC2)cc1Cl`, for which the TGI in the test on COLO 205 colon came to 2.99 µM; in the test with U251 CNS it was 2.99 µM; in the test on NCI-H226 lung, 3.64 µM; in the test on SNB-75 CNS, 3.72 µM; with SK-MEL-28 melanoma, 3.24 µM; in the test with MCF7 breast it was 3.18 µM. In addition, the TGI turned out to be 3.2 µM with SK-MEL-2 melanoma, 3.07 µM in the test on TK-10 renal and 5.39 µM in the test with CCRF-CEM leukemia.

Take `CCc1cc2c(cc1O)CC[C@@H]1[C@@H]2CC[C@]2(C)[C@@H](O)CC[C@@H]12`: the TGI in the test on COLO 205 colon stood at 31.9 µM; with U251 CNS it was 16.7 µM; in the test with NCI-H226 lung, 26.6 µM; with SNB-75 CNS it was 7.59 µM; in the test with SK-MEL-28 melanoma, 16.3 µM; with MCF7 breast, 10.4 µM. Moreover, the TGI with SK-MEL-2 melanoma was 25 µM; in the test with TK-10 renal, 60.9 µM; in the test with CCRF-CEM leukemia it was 15 µM.

`Nc1ccc2ncc(NCc3ccc(F)cc3)nc2c1`: the TGI in the test on COLO 205 colon is greater than 100 µM; with U251 CNS, greater than 100 µM; in the test on NCI-H226 lung, greater than 100 µM; in the test with SNB-75 CNS, greater than 100 µM; in the test with SK-MEL-28 melanoma it was greater than 100 µM; in the test with XF 498 CNS, 86.1 µM. Also, the TGI with SNB-78 CNS, in the test with SK-MEL-2 melanoma, with TK-10 renal and in the test with CCRF-CEM leukemia was greater than 100 µM in each case.

Turning to `O=C(O)Cn1cnc2c(=O)[nH]c(Nc3ccccc3)nc21`, the TGI in the test with COLO 205 colon, in the test on U251 CNS, in the test on NCI-H226 lung, in the test on SNB-75 CNS, with SK-MEL-28 melanoma and in the test on MCF7 breast was greater than 100 µM in each case. The TGI in the test with SK-MEL-2 melanoma, with TK-10 renal and in the test on CCRF-CEM leukemia was greater than 100 µM in each case.

Take `CC(=O)[C@H]1CC[C@@H]2[C@]1(C)CC=C1[C@]23C=C[C@]2(C[C@@H](O)CC[C@]12C)C(C(=O)O)C3C(=O)O` (some centres not stated): the TGI in the test on COLO 205 colon, with U251 CNS, in the test with NCI-H226 lung, in the test with SNB-75 CNS, in the test with SK-MEL-28 melanoma and in the test with MCF7 breast was greater than 100 µM throughout. The TGI in the test with SK-MEL-2 melanoma, in the test on TK-10 renal and with CCRF-CEM leukemia was greater than 100 µM in each case.

For `COc1ccc(/C=N/NC(=O)NCCNCCO)cc1`, the TGI in the test on COLO 205 colon, with U251 CNS, in the test on NCI-H226 lung, with SNB-75 CNS, in the test with SK-MEL-28 melanoma and with SNB-78 CNS was greater than 100 µM throughout. Moreover, the TGI with SK-MEL-2 melanoma, in the test on TK-10 renal and in the test with CCRF-CEM leukemia was greater than 100 µM throughout.

As to `CC(=O)Nc1ccc(S(=O)(=O)Nc2cnc3ccccc3n2)cc1`, the TGI in the test with COLO 205 colon, in the test on U251 CNS, with NCI-H226 lung, in the test with SNB-75 CNS, in the test on SK-MEL-28 melanoma and in the test on XF 498 CNS was greater than 100 µM in each case. The TGI with SK-MEL-2 melanoma, in the test with TK-10 renal and in the test with CCRF-CEM leukemia was greater than 100 µM in each case.

For `CCN(CC)CCNC(=O)C1COc2ccc(-c3cc(=O)c4ccccc4o3)cc2O1` (configuration not stated), the TGI was 34 µM with COLO 205 colon; greater than 65.2 µM in the test on U251 CNS; 31.3 µM in the test with NCI-H226 lung; 42.7 µM with SNB-75 CNS; 33.4 µM in the test with SK-MEL-28 melanoma; 44.6 µM in the test on MCF7 breast. Also, the TGI in the test with XF 498 CNS came to 37.3 µM; in the test on SNB-78 CNS it was 38.6 µM; with SK-MEL-2 melanoma, 38 µM; in the test with CCRF-CEM leukemia, 68.6 µM.
